Measured values from ChEMBL document CHEMBL1149283, “Design, synthesis and evaluation of a PLG tripeptidomimetic based on a pyridine scaffold” (J Med Chem, 2004).
Where a SMILES comes first, the peptide text is derived from it.

Experiments:
Assay type in all cases: functional, cell-based
Conditions in all cases: NIH3T3
[1] = target: D(2) dopamine receptor (Homo sapiens) (UniProt P14416); test: Activity at human dopamine D2 receptor in NIH/3T3 cells assessed as enhancement of NPA-stimulated beta-galactosidase activity at 10 nM after 5 days by R-SAT assay
[2] = target: D(2) dopamine receptor (Homo sapiens) (UniProt P14416); test: Activity at human dopamine D2 receptor in NIH/3T3 cells assessed as enhancement of NPA-stimulated beta-galactosidase activity at 50 nM after 5 days by R-SAT assay
[3] = target: D(2) dopamine receptor (Homo sapiens) (UniProt P14416); test: Activity at human dopamine D2 receptor in NIH/3T3 cells assessed as enhancement of NPA-stimulated beta-galactosidase activity at 100 nM after 5 days by R-SAT assay

Sequence of D(2) dopamine receptor (Homo sapiens) (P14416 whole entry): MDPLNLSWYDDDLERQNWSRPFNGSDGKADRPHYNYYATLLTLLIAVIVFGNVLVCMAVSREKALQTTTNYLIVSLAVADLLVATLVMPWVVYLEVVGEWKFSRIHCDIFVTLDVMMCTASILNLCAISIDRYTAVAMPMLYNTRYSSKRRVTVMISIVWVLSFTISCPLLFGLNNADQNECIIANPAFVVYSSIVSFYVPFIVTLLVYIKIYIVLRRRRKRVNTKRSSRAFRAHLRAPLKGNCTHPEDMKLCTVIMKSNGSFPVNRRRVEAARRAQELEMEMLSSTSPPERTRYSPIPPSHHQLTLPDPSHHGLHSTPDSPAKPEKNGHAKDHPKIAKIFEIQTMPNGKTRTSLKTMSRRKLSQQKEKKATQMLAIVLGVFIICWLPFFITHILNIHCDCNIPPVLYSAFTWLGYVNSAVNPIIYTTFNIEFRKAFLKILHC

| SMILES | Activity [1] [%] | Activity [2] [%] | Activity [3] [%] |
| --- | --- | --- | --- |
| CC(C)C[C@H](NC(=O)[C@@H]1CCCN1)C(=O)NCC(N)=O (H-Pro-Leu-Gly-NH2) | 115 | 104 | 98 |
| CC(C)Cc1c(C(=O)[C@@H]2CCCN2)ccnc1OCC(N)=O | 146 | 135 | 117 |
